# In patent publication US20220339127A1, “DRUGGABLE TARGET TO TREAT RETINAL DEGENERATION” (The United States of America,as represented by the …, priority 2019, published 2022):
# “Also recorded” adds a separate entry of the source.
# What was measured:
# CC-HS treated iRPE cells = experiment: RNAseq of iRPE co-treated with CC-HS and drugs; format: cell-based, human; conditions: listed as L, 745,870
# Excerpt: The key hallmark of AMD cellular phenotypes seen in cadaver eyes and observed in the in vitro model are the sub-RPE lipid and protein rich deposits, increased expression of drusen markers, and the loss of epithelial phenotype and RPE functionality. […] Similar results were obtained by RNAseq of iRPE treated with just CC-HS plus the vehicle or co-treated with CC-HS and the two drugs. Both drugs were able to suppress (4-10 fold) the expression of dedifferentiation markers in CC-HS treated iRPE cells (FIG. 13H).
# iRPE cells [1] = experiment: Nile red staining of lipid deposits in CC-HS treated iRPE; format: cell-based, human; conditions: co-treatment with CC-HS, vs CC-HS and vehicle
# rat RPE = experiment: Rat model of RPE dedifferentiation (micropulse laser lesion, sub-retinal injection); format: in vivo
# Protocol: To test the in vivo activity of these drugs, a rat model of RPE dedifferentiation was developed. A 0.5 mm area of rat RPE was damaged using a micropulse laser. RPE cells in the lasered area are ablated causing the cells surrounding the laser lesion to undergo dedifferentiation due to the loss of cell-cell contacts. […] Effects of drugs on rat RPE dedifferentiation was tested by injecting either of the two drugs in the sub-retinal space of the rat eye at the time of laser injury.
# iRPE monolayer = experiment: Transepithelial resistance (TER) of CC-HS treated iRPE monolayer; format: cell-based, human; conditions: co-treatment with CC-HS
# Excerpt: To further dissect the role of C5aR1 and C3aR1 signaling in inducing AMD cellular phenotypes in iRPE cells, a depleted sera and receptor blocker strategy was employed.
# FIBULIN 3 = FIBULIN 3 expression in CC-HS treated iRPE; format: cell-based, human; conditions: co-treatment with CC-HS, vs CC-HS and vehicle
# iRPE cells [2] = experiment: Proteotoxic high throughput screen (LOPAC) and follow up screen: survival of A23187 treated iRPE; format: cell-based, human; conditions: for cytoprotective activity in follow up screen: seven-point dose curve, A23187 2.5, 5, 10 μM, two iRPE samples
# Protocol: 10 μM concentration of A23187 was selected for the drug screening, because it provided a bigger margin for cell death rescue. […] Drug treatment along with the stressor, 10 μM A23187 were added on to iRPE cells matured in 384-well plates and cell death was scored 48 hours later by ATP release using the CellTitrGlo assay.
# To distinguish false positives from the real signal, a follow up screen on all of the 45 drugs using iRPE derived from two different iPSC lines was performed. The follow up screen was performed at three different A23187 concentrations (2.5, 5, 10 μM) and with seven different concentrations of drugs ranging from 10 nM-1 mM (FIG. 13D-F). […] Overall, the HTS screen provided two drugs for testing in the in vitro AMD model.
# iRPE cells [3] = experiment: Cell area and hexagonality of CC-HS treated iRPE; format: cell-based, human; conditions: co-treatment with CC-HS
# iRPE cells [4] = experiment: Phagocytosis of photoreceptor outer segments by CC-HS treated iRPE; format: cell-based, human; conditions: co-treatment with CC-HS
# Excerpt: Lastly, it was checked if the drugs rescued mature RPE phenotype and RPE functionality. TER of samples co-treated with drugs and CC-HS was 2-3× higher (p<10^−15) as compared to samples treated with vehicle+CC-HS was similar to TER values of CI-HS treated cells (FIG. 7G). Similarly, the addition of both drugs partially rescued (up to 2×; p<10^−15) the ability of the RPE cells to phagocytose photoreceptor outer segments, as compared to cells treated with CC-HS and the vehicle (FIG. 7H). […] The in vitro and in vivo data provides sufficient evidence to support the potential use of these drugs to delay AMD disease initiation and slow its progression.
# ATG5 = ATG5 immunostaining in CC-HS treated iRPE; format: cell-based, human; conditions: co-treatment with CC-HS
# patients with AMD = experiment: Retrospective cohort study of AMD patients concurrently using metformin; format: in vivo, human; conditions: patients ages 50-59, with metformin (n=16); 56 without (n=157)
# Protocol: To determine whether there is clinical evidence that metformin could be beneficial in the treatment of AMD, a retrospective cohort study of patients presenting to Kaiser Permanante Medical with AMD was performed to test whether concurrent use of metformin by individuals affected diagnosis.
# To determine whether there is clinical evidence that metformin could be beneficial in the treatment of AMD a retrospective cohort study was performed of patients presenting to Kaiser Permanante Medical with AMD to test whether concurrent use of metformin by individuals affected diagnosis.
# Abca4−/− mice = experiment: Abca4−/− mouse model, oral metformin, RPE/choroid flat-mount bodipy lipid stain
# AMPK signaling pathway = experiment: Gene expression of AMPK signaling pathway in L-ORD patient RPE; format: cell-based, human; conditions: metformin 3 mM for 1½ to 2 weeks
# Protocol: Treatment with metformin (3 mM) for 1½ to 2 weeks results in further decrease in some genes but an upregulation in others. […] In the RPE, the PEDF-R plays an important role in fatty acid metabolism.
# AMPK = experiment: Phospho-AMPK ELISA in iPSC-RPE of L-ORD patients and unaffected siblings; format: cell-based, human; conditions: L-ORD patient iPSC-RPE, 3 mM metformin, 1½-2 weeks
# Protocol: Thus, in FIG. 16b iPSC-RPE were incubated with recombinant CTRP5 globular form (0.2 μg/mL gCTRP5) for 30 min in the presence (+) and absence (−) of serum to evaluate its role in AMPK signaling.
# To better elucidate the ADIPOR1-CTRP5 (receptor-ligand) interaction, […] a ligand dose response curve was performed (in serum free media) by exogenously adding increasing concentrations of recombinant full length CTRP5 (FIG. 16c).
# AMPK is a sensitive indicator of the cell energy status and is canonically activated by the levels of AMP or ATP (Hardie and Lin, 2017). Therefore, the AMPK activity (in serum free media) of sibling and patient iPSC-RPE under conditions (increased AMP:ATP ratio) known to stimulate AMPK phosphorylation was characterized (FIG. 16d). iPSC-RPE were incubated in serum deprived media for 5 hours (Park et al., 2009) followed by 30 mins exposure to AICAR (an AMP analogue) or BAM15 (a mitochondrial uncoupler to reduce ATP production).
# (§1) Metformin treatment consisted of 3 mM metformin added to the apical and basal media for 1½- 2 weeks.
# iPSC-RPE [5] = experiment: VEGF secretion ELISA under normoxia; format: cell-based, human; conditions: L-ORD patients, metformin 3 mM for 1½ to 2 weeks
# Excerpt: Polarized secretion of cytokines by the RPE is a hallmark of their mature and differentiated state. Under conditions that promote epithelial to mesenchymal transition (EMT), RPE lose their morphology and their secretion becomes mispolarized. Dedifferentiation of the RPE is a frequently proposed mechanism in retinal degenerations such as AMD. Typically VEGF is primarily secreted basally by the RPE. In L-ORD patients, the polarity of VEGF secretion is lost as assessed by ELISA.
# iPSC-RPE [6] = experiment: Cell area of POS-fed iPSC-RPE (ZO-1 staining, REShAPE); format: cell-based, human
# Excerpt: Accumulating evidence implicates disrupted lipid metabolism as a common pathogenic mechanism in a host of diseases including AMD (Ban et al., 2018; Xu et al., 2018). These metabolic defects are linked to long term health of RPE cells. To determine the consequence of PEDF-R deficiency in RPE cells, L-ORD iPSC-RPE and unaffected siblings were subjected to 7-day photoreceptor outersegment (POS) feeding to exacerbate the high fat-induced epithelial impairment. Concomitantly, it was investigated whether the lipid-lowering effects of metformin, an anti-diabetic drug (Schneider et al., 1990), could reverse RPE dedifferentiation and loss of polarity. Cell size, a key morphological indicator of RPE polarity, was evaluated by staining for ZO-1 (green) to identify cell borders (FIG. 18a) and employing automated image analysis algorithms in REShAPE (a cloud-computing based cell morphometry analyzer) to perform morphometric analysis of RPE cells.
# (§2) Patient iPSC-RPE were treated daily beginning with the first day of POS feeding with 3 mM metformin (Fan et al., 2015; Kim et al., 2011).
# L-ORD patient RPE = experiment: Apical beta-hydroxybutyrate (B-hB) secretion by RPE; format: cell-based, human
# Protocol: The inventors have hypothesized that increasing fatty acid oxidation and ketone body formation (B-hB) may lead to decreased lipid accumulation in the sub retinal space.
# as §1
# iPSC-RPE [7] = experiment: APOE deposition in POS-fed iPSC-RPE (integrated density); format: cell-based, human; conditions: for integrated density of APOE signal, apical / integrated density of APOE signal, basal: 7-days POS feeding
# Protocol: as §2
# White arrow indicates basal increase in APOE deposits reminiscent of APOE-rich drusen deposits in AMD (Johnson et al., 2011). […] Image J was used to draw a rectangular region of interest around the apical and basal APOE-positive staining to quantify the localized mean integrated intensity and the data is summarized in FIG. 18d.
# L-ORD patient iPSC-RPE = experiment: Expression of EMT-related genes in POS-fed L-ORD patient iPSC-RPE; format: cell-based, human
# Excerpt: POS feeding for 7-days also altered the expression profiles of 85 EMT-related genes in L-ORD patient iPSC-RPE (FIG. 18g).
# Stargardt iRPE = experiment: Ceramide levels in POS fed Stargardt iRPE; format: cell-based, human
# [8] = Mass-spectrometry analysis of metformin in eyes and plasma of treated animals; format: in vivo, mouse; conditions: oral dosing, data not shown
# iPSC-RPE [9] = experiment: VEGF secretion ELISA under hypoxic conditions; format: cell-based, human; conditions: for VEGF secretion, apical (Ap) / VEGF secretion, basal (Ba): hypoxic conditions (6h)
# Protocol: Hypoxic stress (3% 02, 6h) was employed to determine how this perturbation regulates VEGF secretion in L-ORD patient iPSC-RPE.
# [10] = metformin treated L-ORD patients
# [11] = metformin treated unaffected siblings
# [12] = L-ORD patient RPE, prior metformin 2 weeks
# [13] = untreated or metformin treated unaffected siblings
compound,measurement,setting,value
"Clc1ccc(N2CCN(Cc3c[nH]c4ncccc34)CC2)cc1 [L-745,870]",gene expression changes induced by CC-HS treatment,CC-HS treated iRPE cells,reversed gene expression changes induced by CC-HS treatment; also recorded: reversal of the upregulation of NF-KB pathway genes
same,amount of Nile red positive lipid droplets,iRPE cells [1],reduced
same,area of RPE cells at the borders of laser lesion in rat eyes,rat RPE,reduced area
same,hexagonality of RPE cells at the borders of laser lesion in rat eyes,rat RPE,improved hexagonality
same,area of RPE cells around the laser lesion,rat RPE; sub-retinal injection at the time of laser injury,439.55 um2
same,monolayer TER,iRPE monolayer,increased monolayer TER
same,expression of FIBULIN 3,FIBULIN 3,reduced
same,expression of FIBULIN 3,"FIBULIN 3; listed as L745,870",four-fold lower
same,IC50,"iRPE cells [2]; cell survival of A23187 treated iRPE, read-out: IC50 dose from seven-point dose response curve",6 µM
same,cytoprotective activity in follow up screen,iRPE cells [2],reproducible cell survival; also recorded: linear response the seven-point dose curve and reproducibility between two different iRPE samples
same,cytoprotective activity in follow up screen,"iRPE cells [2]; listed as L, 745,870",reproducible cytoprotective activity
same,average cell area,iRPE cells [3],162.24 um2
same,cell area of CC-HS treated iRPE cells,iRPE cells [3],reduced area
same,hexagonality of CC-HS treated iRPE cells,iRPE cells [3],improved hexagonality
same,hexagonality score,iRPE cells [3]; 10 represents a perfect hexagon,8.25
same,phagocytic ability,iRPE cells [4],increased
same,"reduced expression of autophagy protein, ATG5",ATG5,does not lead to
CN(C)C(=N)N=C(N)N [metformin],age of onset of nonexudative age-related macular degeneration,patients with AMD,58.5 years of age
same,hypoglycemia in treated mice,Abca4−/− mice; oral metformin 400 or 800 mg/day,do not lead to hypoglycemia
same,lipid levels / deposits in RPE/choroid flat-mount,Abca4−/− mice; oral metformin 400 or 800 mg/day for three months,drastically reduced lipid levels; also recorded: reduced deposits
same,PNPLA2 (PEDF-R) expression,AMPK signaling pathway,significant increase
same,sensitivity of p-AMPK to changes in the AMP:ATP ratio / AICAR,AMPK,restored sensitivity to AICAR; also recorded: regained sensitivity to AICAR; also recorded: restores the sensitivity
same,polarized VEGF secretion,iPSC-RPE [5],rescue of polarized VEGF secretion
same,polarized VEGF secretion,iPSC-RPE [5]; listed as Metformin,rescues mispolarized secretion of VEGF
same,POS stress-induced enlargement of patient iPSC-RPE,iPSC-RPE [6]; 3 mM metformin daily from first day of POS feeding,largely prevented the POS stress-induced enlargement
same,cell area,"iPSC-RPE [6]; L-ORD patient iPSC-RPE, 3 mM metformin during 7 days POS feeding",117.92±0.96 um
same,cell area,"iPSC-RPE [6]; unaffected siblings, metformin during 7 days POS feeding",93.14±1.56 um
same,increase in apical B-hB secretion,"L-ORD patient RPE; L-ORD patient RPE, 3 mM metformin 1½-2 weeks",25%
same,beta-hydroxybutyrate apical secretion,L-ORD patient RPE; metformin treatment,increased beta-hydroxybutyrate apical secretion
same,apical and basal APOE deposition,iPSC-RPE [7]; L-ORD patient RPE treated with metformin during POS feeding,ameliorate the accumulation of APOE-containing basal deposits; also recorded: redistribution of the relative proportions of apical and basal APOE deposition
same,"integrated density of APOE signal, apical",iPSC-RPE [7]; [10],79.30±37.51
same,"integrated density of APOE signal, basal",iPSC-RPE [7]; [10],13.58±4.58
same,"integrated density of APOE signal, apical",iPSC-RPE [7]; [11],119.98±20.36
same,"integrated density of APOE signal, basal",iPSC-RPE [7]; [11],23.55±6.17
same,number of EMT genes downregulated,"L-ORD patient iPSC-RPE; L-ORD patient iPSC-RPE treated with metformin, <4-fold as printed",42 genes
same,expression of EMT related genes,L-ORD patient iPSC-RPE; metformin during 7-days POS feeding,suppresses the expression of EMT related genes
same,reduction of ceramide levels vs vehicle,"Stargardt iRPE; 3 mM metformin, wild type POS for 6 consecutive days",3-4 fold
same,ceramide accumulation,Stargardt iRPE; POS-Fed Stargardt iRPE treated with metformin,dramatic reduction
same,"amount of metformin in RPE/choroid, retina, and plasma",[8],comparable amount
same,hypoxia-induced apical VEGF secretion,iPSC-RPE [9]; 1½ week pretreatment with metformin,alleviated the hypoxia-induced apical VEGF secretion
same,"VEGF secretion, apical (Ap)",iPSC-RPE [9]; [12],0.59±0.09
same,"VEGF secretion, basal (Ba)",iPSC-RPE [9]; [12],1.8±0.24
same,"VEGF secretion, apical (Ap)",iPSC-RPE [9]; [13],0.98±0.16
same,"VEGF secretion, basal (Ba)",iPSC-RPE [9]; [13],1.64±0.33
same,rescue of mispolarized VEGF secretion,"iPSC-RPE [9]; hypoxic stress (3% O2, 6h), metformin for 24h, data not shown",insufficient to rescue this phenotype
